“And” between values parts separate entries of the source, which are not always exact repeats. Equal entries are not always repeated. Structures can show the parent of a compound that is named as a salt.
Key:
[1] = test system: Clostridium histolyticum collagenase; assay: Bacterial collagenase-based anti-MMP screening assay (SDS-PAGE gel analysis of undegraded Type I collagen); assay type: biochemical
Experimental: Bacterial collagenase-based anti-MMP screening assay: This assay employs purified Clostridium histolyticum collagenase (hereinafter “collagenase”) as the test enzyme for screening anti-MMP activity of compounds of interest. The screening assay involves incubating a constant concentration of collagenase with Type I soluble collagen and quantifying the amount of Type I collagen that remains undegraded in the presence of collagenase in the presence and absence of different test compounds. The basic assay composition comprises 50 μg of Type I collagen (e.g., human placental; Cat. # C7521; Sigma-Aldrich, St. Louis, […]., USA) and 50 μg of collagenase (e.g., Clostridium histolyticum E.C. 3.4.24.3; Cat. No. C7667 (1909 CDU/mg solid); Sigma-Aldrich, St. Louis, […]., USA) in a physiological buffer (pH 7.4) containing zinc ions, with a total reaction volume of 60 μl. […] The buffer composition used comprises […] Tris Base, 200 mM NaCl, 10 mM CaCl2, 0.05 mM ZnCl2, 3 mM NaN3 adjusted to […] with 1 N HCl.
Compounds of interest are added to the reaction system described above to assess their ability to inhibit collagenase degradation of collagen. As test compounds vary with respect to molecular weight and affinity for the dentin matrix, a range of concentrations (wt %) for each compound may be added to the basic reaction. Test compounds may be diluted approximately 1:5 in the final reaction volume by the subsequent sequential addition of solutions containing collagenase, collagen, and buffer.
The enzyme and the collagen are kept on ice. Twenty μL of enzyme (concentration of 5 μg protein/μL×20 μL=100 μg of enzyme) protein was incubated with 5 μL of loading buffer and 20 μL of inhibitor. The reaction was started by adding 20 μL of type I collagen (5 μg/μL×20=100 μg collagen). Thus, the total volume was 65 μL. The total protein was 100 μg enzyme protein plus 100 μg of collagen=200 μg protein in 65 μL. Thirty μL of that mixture was applied to the gel (30/65×200 μg protein=92.3 μg protein. Because the total volume was 65 μL and the inhibitor volume was 20 μL, the inhibitor was diluted 3.25-fold.
Following assembly, reactions are incubated for one hour at 37° C. The incubation reactions were terminated by submerging the tube in boiling water for 3 min. After termination, 30 μL of each reaction assay containing 92 μg of total protein is loaded onto a 7.5% SDS-PAGE polyacrylamide gel (BioRad, Hercules, Calif.) and subjected to electrophoresis at 200 V for 60 min. SDS-PAGE gels are routinely run with samples and various controls in the following order. The nature of the controls is further described below. Controls include collagenase alone (lane 1); collagen alone (lane 2); and collagen mixed with collagenase (lane 3). Assay reactions containing collagen mixed with collagenase plus various concentrations of the test collagenase inhibitor compounds are then loaded on the gel starting with lane 4 (loaded in order of decreasing compound concentration).
Following electrophoresis of the samples, the gel is stained in 0.25% Coomassie Brilliant Blue overnight and destained for 8 hrs in water prior to imaging. After destaining, the gels are digitally scanned to permit quantification of the amount of undegraded collagen present in each reaction, relative to the collagen standard in lane 2.
With regards to the controls, both Type I collagen and collagenase are proteins too large to migrate very far into the SDS-PAGE gel.

human recombinant MMP-9 = molecular target: T1, human recombinant MMP-9 (Homo sapiens, UniProt P14780); assay: Human MMP-9-based anti-MMP screening assay (Sensolyte Generic MMP colorimetric kit); assay type: biochemical; details: soluble human MMP-9
T1 construct: purchased AnaSpec, Inc. 72009
Experimental: Human MMP-9-based anti-MMP screening assay: This assay employed purified human recombinant MMP-9 (Cat. No. 72009) and the Sensolyte Generic MMP colorimetric assay kit (Cat. No. 72095) from AnaSpec, Inc. (San Jose, Calif., USA) for screening anti-MMP activity of compounds of interest. This assay involves incubating a constant concentration of human MMP-9 with a proprietary thiopeptide substrate and quantifying the amount of substrate cleaved by the […] in the presence and absence of different test compounds. Cleavage of the proprietary thiopeptide substrate is quantitated by evaluating color production. Reactions may be assembled in a 96-well plate. After incubation for 30 minutes at 37° C., reactions are stopped and absorption measured at 412 nm using a 96-well plate reader synergy HT (BioTek Instruments, Inc., Winooski, Vt., USA).

T1 sequence (P14780 94-707): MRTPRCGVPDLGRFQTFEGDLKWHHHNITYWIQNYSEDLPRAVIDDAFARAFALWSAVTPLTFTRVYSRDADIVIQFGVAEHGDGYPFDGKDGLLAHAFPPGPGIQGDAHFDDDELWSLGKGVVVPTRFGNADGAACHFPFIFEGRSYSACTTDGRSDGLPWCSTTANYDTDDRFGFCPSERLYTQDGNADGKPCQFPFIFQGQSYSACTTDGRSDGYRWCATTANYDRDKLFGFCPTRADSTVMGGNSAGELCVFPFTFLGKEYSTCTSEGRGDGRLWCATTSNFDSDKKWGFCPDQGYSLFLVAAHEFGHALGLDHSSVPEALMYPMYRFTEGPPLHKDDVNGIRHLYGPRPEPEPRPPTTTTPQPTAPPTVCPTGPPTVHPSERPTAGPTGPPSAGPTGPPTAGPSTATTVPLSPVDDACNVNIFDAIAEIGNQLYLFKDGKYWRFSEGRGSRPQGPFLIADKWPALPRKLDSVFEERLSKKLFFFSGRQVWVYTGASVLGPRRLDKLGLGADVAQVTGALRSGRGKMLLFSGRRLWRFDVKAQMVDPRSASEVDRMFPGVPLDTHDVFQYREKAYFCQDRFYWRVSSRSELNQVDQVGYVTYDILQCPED

Compound: CCCCCCCCCCCCCCCC[N+](C)(C)C.[Br-] [hexadecyl trimethyl ammonium bromide, reference compound]
- inhibitory activity against collagenase ([1]; inhibitor 0.15% in ethanol): no inhibitory activity

Compound: C=CC[N+](C)(C)CC=C.[Cl-] [DDAC, Diallyldimethylammonium chloride]
- COLLAGENASE INHIBITION (%) ([1]; inhibitor 0.5 wt %): 50%
- COLLAGENASE INHIBITION (%) ([1]; inhibitor 1 wt %): 56%
- COLLAGENASE INHIBITION (%) ([1]; inhibitor 3 wt %): 59%
- COLLAGENASE INHIBITION (%) ([1]; inhibitor 6 wt %): 66%
- COLLAGENASE INHIBITION (%) ([1]; inhibitor 12 wt %): 73%
- % MMP ACTIVITY INHIBITION (t = 30 minutes) (human recombinant MMP-9; inhibitor 10 wt %): 7%
- % MMP ACTIVITY INHIBITION (t = 30 minutes) (human recombinant MMP-9; inhibitor 24 wt %): 16%

Compound: CC(=O)O.CC(=O)O.NC(=N\CCCCCC/N=C(N)/N=C(\N)Nc1ccc(Cl)cc1)/N=C(\N)Nc1ccc(Cl)cc1 [Chlorhexidine diacetate, chlorhexidine diacetate, reference compound]
- COLLAGENASE INHIBITION (%) ([1]; inhibitor 0.02 wt %): 1%
- COLLAGENASE INHIBITION (%) ([1]; inhibitor 0.02 wt %, listed as CHX): did not inhibit collagenase
- COLLAGENASE INHIBITION (%) ([1]; inhibitor 0.2 wt %): 74%
- COLLAGENASE INHIBITION (%) ([1]; inhibitor 0.2 wt %, listed as CHX): 69%

Compound: O=C(O)CN(CCN(CC(=O)O)CC(=O)O)CC(=O)O [EDTA, reference compound]
- inhibited collagenase ([1]; inhibitor 10 mM (control lane)): 100% and 87%

Compound: Cc1c(OCC(O)C[N+](C)(C)C)cc2c(=O)c3ccccc3sc2c1C.[Cl-] (stereo not drawn) [OTX, [3-(3,4-dimethyl-9-oxo-9H-thioxanthen-2-yloxy)-2-hydroxypropyl] trimethyl ammonium chloride]
- COLLAGENASE INHIBITION (%) ([1]; inhibitor 0.1 wt %): 57%
- COLLAGENASE INHIBITION (%) ([1]; inhibitor 0.2 wt %): 86%

Compound: pyridinium tribromide [reference compound]
- COLLAGENASE INHIBITION (%) ([1]; inhibitor 1 wt %): no inhibitory activity

Compound: C=CC(=O)OCC[N+](C)(C)C.[Cl-] [ATA, 2-Acryloxyethyltrimethylammonium chloride]
- COLLAGENASE INHIBITION (%) ([1]; inhibitor 0.5 wt %): 57%
- COLLAGENASE INHIBITION (%) ([1]; inhibitor 1 wt %): 55%
- COLLAGENASE INHIBITION (%) ([1]; inhibitor 4 wt %): 44%
- COLLAGENASE INHIBITION (%) ([1]; inhibitor 8 wt %): 49%
- COLLAGENASE INHIBITION (%) ([1]; inhibitor 16 wt %): 73%
- % MMP ACTIVITY INHIBITION (t = 30 minutes) (human recombinant MMP-9; inhibitor 10 wt %): 79%
- % MMP ACTIVITY INHIBITION (t = 30 minutes) (human recombinant MMP-9; inhibitor 24 wt %): 82%

Compound: C=C(C)C(=O)OCC[N+](C)(C)C [MCMS, 2-[(Methacryloyloxy)ethyl]trimethylammonium methyl sulfate]
- COLLAGENASE INHIBITION (%) ([1]; inhibitor 0.5 wt %): 73%
- COLLAGENASE INHIBITION (%) ([1]; inhibitor 1 wt %): 70%
- COLLAGENASE INHIBITION (%) ([1]; inhibitor 4 wt %): 65%
- COLLAGENASE INHIBITION (%) ([1]; inhibitor 8 wt %): 62%
- COLLAGENASE INHIBITION (%) ([1]; inhibitor 16 wt %): 87%
- % MMP ACTIVITY INHIBITION (t = 30 minutes) (human recombinant MMP-9; inhibitor 10 wt %): 55%
- % MMP ACTIVITY INHIBITION (t = 30 minutes) (human recombinant MMP-9; inhibitor 24 wt %): 84%

Compound: benzalkonium chloride [reference compound]
- COLLAGENASE INHIBITION (%) ([1]; inhibitor 10 wt %): no inhibitory activity

Compound: C=C(C)C(=O)OCC[N+](C)(C)C.[Cl-] [METMAC, [2-(Methacryloyloxy)ethyl]trimethylammonium chloride]
- COLLAGENASE INHIBITION (%) ([1]; inhibitor 1.3 wt %): 39%
- COLLAGENASE INHIBITION (%) ([1]; inhibitor 6.4 wt %): 56%
- inhibited collagenase ([1]; inhibitor 12.85%): 69%
- COLLAGENASE INHIBITION (%) ([1]; inhibitor 12.9 wt %): 69%
- COLLAGENASE INHIBITION (%) ([1]; inhibitor 25.7 wt %): 100%
- % MMP ACTIVITY INHIBITION (t = 30 minutes) (human recombinant MMP-9; inhibitor 10 wt %): 42%
- % MMP ACTIVITY INHIBITION (t = 30 minutes) (human recombinant MMP-9; inhibitor 24 wt %): 71%

Compound: C=C(C)C(=O)NCCC[N+](C)(C)C.[Cl-] [MAPTAC, [3-(Methacryloylamino)propyl]trimethylammonium chloride]
- COLLAGENASE INHIBITION (%) ([1]; inhibitor 0.1 wt %): 41%
- COLLAGENASE INHIBITION (%) ([1]; inhibitor 0.5 wt %): 39%
- COLLAGENASE INHIBITION (%) ([1]; inhibitor 1 wt %): 53%
- COLLAGENASE INHIBITION (%) ([1]; inhibitor 5 wt %): 53%
- COLLAGENASE INHIBITION (%) ([1]; inhibitor 10 wt %): 55%
- % MMP ACTIVITY INHIBITION (t = 30 minutes) (human recombinant MMP-9; inhibitor 10 wt %): 6%
- % MMP ACTIVITY INHIBITION (t = 30 minutes) (human recombinant MMP-9; inhibitor 24 wt %): 17%
